Assay results from patent US7951962B2, “Organic semiconductor compound, organic semiconductor thin film, organic semiconductor coating liquid, organic thin film transistor, methods for producing bis(benzo[4,5] thieno)[2,3-B:3′2′-E][1,4]dithin and bis(benzo [4,5]thieno)[2,3-B:2′3′-E][1,4]dithiin” (Seiko Epson Corporation, priority 2006, dated 2011).

Experiments:
[1] = Solvent solubility; assay type: physicochemical
Excerpt: The solvent for dissolving the organic semiconductor compound material according to the embodiment may be a hydrocarbon, an alcohol, an ether, an ester, a halogen, a ketone, […], the BTX, a non-proton polar solvent or a mixture solvent thereof. The hydrocarbon may be hexane, heptane, octane or cyclohexane, for example. The alcohol may be methanol, ethanol, (iso-)propanol or butanol. The ether may be diethyl ether, tetrahydrofuran or dioxane and the ester may be ethyl acetate or butyl acetate. The halogen may be dichloromethane or chloroform and the ketone may be acetone or methyl ethyl ketone. The nitrile may be acetonitrile or methyl nitrile. The BTX is a mixture of benzene, toluene and xylene. The non-proton polar solvent may be dimethylsulfoxide (DMSO), dimethylformamide (DMF) or hexamethylphosphoramide (HMPA).
Based on logarithmic plotting in the graph, an ON/OFF ratio of the device was approximately […].

| melting point | solubility in solvent ([1]; the above-described solvent (hydrocarbon, alcohol, ether, ester, halogen, ketone, nitrile, BTX, non-proton polar solvent)) | Compound | solubility compared with known compounds ([1]; versus well-known low-molecular organic semiconductor compounds) |
| --- | --- | --- | --- |
| 207 to 208.3 °C | – | c1ccc2c3c(sc2c1)Sc1c(sc2ccccc12)S3 [bis(benzo[4,5]thieno)[2,3-b: 2′3′-e][1,4]dithiin] | – |
| – | soluble in the above-described solvent | c1ccc2c3c(sc2c1)Sc1sc2ccccc2c1S3 [bis(benzo[4,5]thieno)[2,3-b: 3′2′-e][1,4]dithiin] | higher solubility than well-known low-molecular organic semiconductor compounds |
